For 16 compounds, EC50 and IC50 results are on record in patent US20250163038A1, “CBL-B MODULATORS AND USES THEREOF” (Nimbus Clio, Inc., priority 2021, published 2025).

In general, EC50 refers to the concentration giving half of the maximal effect. As usually defined, the IC50 is the concentration needed to halve the response being measured.

In assay [1] the test system is Jurkat (clone E6-1) cells with NFAT luciferase reporter. In words: Jurkat reporter assay (NFAT Luciferase). It counts as cell-based. Particulars: Jurkat NFAT luciferase reporter cells, anti-CD3 stimulation, 6 hr, read-out: Jurkat NFAT EC50. (In a reporter assay the amount or activity of a reporter protein is the signal.)
The target in assay [2] is Recombinant human Cbl-b (aa 36-427) (Homo sapiens, UniProt Q13191). In words: Cbl-b Biochemical Assay (TR-FRET). The settings on record: read-out: TR-FRET hCbl-b IC50. A general note: Time-resolved FRET reads energy transfer from a long-lived donor to a nearby acceptor.
Sequence of Recombinant human Cbl-b (aa 36-427) (Q13191 36-427): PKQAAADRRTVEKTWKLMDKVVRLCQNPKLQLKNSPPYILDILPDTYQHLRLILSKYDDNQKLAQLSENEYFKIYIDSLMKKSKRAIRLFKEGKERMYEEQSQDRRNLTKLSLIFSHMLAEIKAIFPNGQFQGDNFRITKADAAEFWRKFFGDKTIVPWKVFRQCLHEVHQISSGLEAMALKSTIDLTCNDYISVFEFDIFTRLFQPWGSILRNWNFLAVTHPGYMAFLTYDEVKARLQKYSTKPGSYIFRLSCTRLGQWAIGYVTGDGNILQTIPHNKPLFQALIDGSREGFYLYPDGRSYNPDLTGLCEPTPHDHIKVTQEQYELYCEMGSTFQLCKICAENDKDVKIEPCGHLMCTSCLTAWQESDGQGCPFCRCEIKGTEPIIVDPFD
Assay [3] concerns the target T1, Recombinant human c-Cbl (aa 47-435) (Homo sapiens, UniProt P22681).
T1 sequence (P22681 47-435): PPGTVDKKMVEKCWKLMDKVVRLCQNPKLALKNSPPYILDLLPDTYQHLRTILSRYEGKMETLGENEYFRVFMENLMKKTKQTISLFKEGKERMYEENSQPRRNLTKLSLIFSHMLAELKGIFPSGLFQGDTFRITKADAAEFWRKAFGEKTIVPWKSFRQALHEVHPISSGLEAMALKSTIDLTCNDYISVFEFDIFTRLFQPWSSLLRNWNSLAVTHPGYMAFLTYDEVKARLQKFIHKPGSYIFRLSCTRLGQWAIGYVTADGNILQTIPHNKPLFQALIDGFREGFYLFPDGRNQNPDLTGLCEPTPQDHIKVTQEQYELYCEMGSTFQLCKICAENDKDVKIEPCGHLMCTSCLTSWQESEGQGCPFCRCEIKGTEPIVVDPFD
In words: c-Cbl Biochemical Assay (TR-FRET). The settings on record: hc-Cbl Biochemical Assay (TR-FRET); read-out: TR-FRET hcCbl IC50.

Where two headings read alike, the source gives them in different places. Where only a bound is given, the exact number is not on record here.

As to `Cn1cnnc1-c1cc(F)ccc1-c1cc(-c2nc3cc(CN[C@@H]4CCC[C@@H]4O)cc(C(F)(F)F)c3o2)cc(C2CC2)c1` [ACZ-8, (1S,2R)-2-[({2-[5-Cyclopropyl-4′-fluoro-2′-(4-methyl-1,2,4-triazol-3-yl)-[1,1′-biphenyl]-3-yl]-7-(trifluoromethyl)-1,3-benzoxazol-5-yl}methyl)amino]cyclopentan-1-ol], the EC50 in assay [1] (Homo sapiens) was < 200 nM. Also, the concentration for half-maximal inhibition (IC50) in assay [2] and in assay [3] was < 200 nM each time.

On to `Cn1cnnc1-c1cc(F)ccc1-c1cccc(-c2nc3cc(CN4CC[C@H](O)C4)cc(C(F)(F)F)c3o2)c1` [AD-2, (S)-1-((2-(4′-Fluoro-2′-(4-methyl-4H-1,2,4-triazol-3-yl)-[1,1′-biphenyl]-3-yl)-7-(trifluoromethyl)benzo[d]oxazol-5-yl)methyl)pyrrolidin-3-ol], for which, in assay [1] (Homo sapiens), the EC50 lay within 1000 to 10000 nM. Further, the 50% inhibitory concentration (IC50) in assay [2] is < 200 nM; in assay [3], 1000 to 10000 nM.

Turning to `Cn1cnnc1-c1cc(F)ccc1-c1cc(-c2nc3cc(CN[C@@H]4CCC[C@@H]4O)cc(C(F)(F)F)c3o2)nc(C2CC2)c1` [ADA-6, (1S,2R)-2-{[(2-{6-Cyclopropyl-4-[4-fluoro-2-(4-methyl-1,2,4-triazol-3-yl)phenyl]pyridin-2-yl}-7-(trifluoromethyl)-1,3-benzoxazol-5-yl)methyl]amino}cyclopentan-1-ol], in assay [1] (Homo sapiens), the EC50 was < 200 nM. For the same compound, the IC50 in assay [2] and in assay [3] was < 200 nM each time.

On to `Cn1cnnc1-c1cc(Cl)ccc1-c1cccc(-c2nc3cc(CN[C@@H]4CCC[C@@H]4O)cc(C(F)(F)F)c3[nH]2)c1` [ADB-9, (1S,2R)-2-(((2-(4′-Chloro-2′-(4-methyl-4H-1,2,4-triazol-3-yl)-[1,1′-biphenyl]-3-yl)-7-(trifluoromethyl)-1H-benzo[d]imidazol-5-yl)methyl)amino)cyclopentan-1-ol], for which the concentration for a half-maximal effect (EC50) in assay [1] (Homo sapiens) was < 200 nM. In addition, the IC50 in assay [2] and in assay [3] was < 200 nM in each case.

In the case of `Cn1cnnc1[C@]1(c2cccc(-c3nc4cc(CN[C@@H]5CCC[C@@H]5O)cc(C(F)(F)F)c4o3)c2)C[C@@H](C)C1` [ADE-3, (1S,2R)-2-{[(2-{3-[(1r,3s)-3-Methyl-1-(4-methyl-1,2,4-triazol-3-yl)cyclobutyl]phenyl}-7-(trifluoromethyl)-1,3-benzoxazol-5-yl)methyl]amino}cyclopentan-1-ol], the EC50 in assay [1] was < 200 nM. The half-maximal inhibitory concentration (IC50) in assay [2] and in assay [3] was < 200 nM in each case.

Consider `Cn1cnnc1-c1cc(Cl)ccc1-c1cccc(-c2nc3cc(CN[C@@H]4CCC[C@@H]4O)cc(C(F)(F)F)c3o2)c1` [ADI-3, (1S,2R)-2-[({2-[4′-Chloro-2′-(4-methyl-1,2,4-triazol-3-yl)-[1,1′-biphenyl]-3-yl]-7-(trifluoromethyl)-1,3-benzoxazol-5-yl}methyl)amino]cyclopentan-1-ol], for which, in assay [1] (Homo sapiens), the concentration for a half-maximal effect (EC50) is < 200 nM. The IC50 in assay [2] and in assay [3] was < 200 nM in each case.

As to `Cn1cnnc1-c1cc(Cl)ccc1-c1cccc(-c2nc3cc(CO)ccc3o2)c1` [ADK-1, {2-[4′-Chloro-2′-(4-methyl-1,2,4-triazol-3-yl)-[1,1′-biphenyl]-3-yl]-1,3-benzoxazol-5-yl}methanol], the EC50 in assay [1] (Homo sapiens) lay in the range of 10000 to 50000 nM. The IC50 in assay [2] and in assay [3] was 1000 to 10000 nM throughout.

For the compound `Cn1cnnc1-c1cc(Cl)ccc1-c1cccc(-c2nc3cc(CN[C@@H]4CCC[C@@H]4O)ccc3o2)c1` [ADL-2, (1S,2R)-2-[({2-[4′-Chloro-2′-(4-methyl-1,2,4-triazol-3-yl)-[1,1′-biphenyl]-3-yl]-1,3-benzoxazol-5-yl}methyl)amino]cyclopentan-1-ol], the EC50 in assay [1] (Homo sapiens) was < 200 nM. The IC50 in assay [2] and in assay [3] was < 200 nM each time.

For `CCOc1cc(-c2ccc(F)cc2-c2nncn2C)cc(-c2nc3cc(CN[C@@H]4CCC[C@@H]4O)cc(OC)c3o2)n1` [ADM-14, (1S,2R)-2-{[(2-{6-Ethoxy-4-[4-fluoro-2-(4-methyl-1,2,4-triazol-3-yl)phenyl]pyridin-2-yl}-7-methoxy-1,3-benzoxazol-5-yl)methyl]amino}cyclopentan-1-ol], the EC50 in assay [1] (Homo sapiens) was < 200 nM. Moreover, the half-maximal inhibitory concentration (IC50) in assay [2] and in assay [3] was < 200 nM throughout.

As to `COCCNCc1cc(C(F)(F)F)c2oc(-c3cccc([C@]4(c5nncn5C)C[C@@H](C)C4)c3)nc2c1` [ADN-1, (2-Methoxyethyl)[(2-{3-[(1r,3s)-3-methyl-1-(4-methyl-1,2,4-triazol-3-yl)cyclobutyl]phenyl}-7-(trifluoromethyl)-1,3-benzoxazol-5-yl)methyl]amine], the concentration giving a half-maximal response (EC50) in assay [1] (Homo sapiens) lay in the range of 200 to 1000 nM. Further, the half-maximal inhibitory concentration (IC50) is < 200 nM in assay [2] and 200 to 1000 nM in assay [3].

For `C[C@H]1CCCN(Cc2cc(C(F)(F)F)c3oc(-c4cc(-c5ccc(F)cc5-c5nncn5C)cc(C5CC5)n4)nc3c2)C1` [ADO-1, 2-{6-Cyclopropyl-4-[4-fluoro-2-(4-methyl-1,2,4-triazol-3-yl)phenyl]pyridin-2-yl}-5-{[(3S)-3-methylpiperidin-1-yl]methyl}-7-(trifluoromethyl)-1,3-benzoxazole], the concentration giving a half-maximal response (EC50) in assay [1] (Homo sapiens) is < 200 nM. The IC50 in assay [2] and in assay [3] was < 200 nM in each case.

Regarding `COC(=O)c1ccc2oc(-c3cc(-c4ccc(F)cc4-c4nncn4C)cc(C4CC4)n3)nc2c1` [ADP-1, Methyl 2-{6-cyclopropyl-4-[4-fluoro-2-(4-methyl-1,2,4-triazol-3-yl)phenyl]pyridin-2-yl}-1,3-benzoxazole-5-carboxylate], in assay [1] (Homo sapiens), the EC50 fell in the range of 10000 to 50000 nM. For the same compound, the IC50 in assay [2] and in assay [3] was 10000 to 50000 nM throughout.

Take `Cn1cnnc1-c1cc(F)ccc1-c1cc(-c2nc3cc(CO)ccc3o2)nc(C2CC2)c1` [ADQ-1, (2-{6-Cyclopropyl-4-[4-fluoro-2-(4-methyl-1,2,4-triazol-3-yl)phenyl]pyridin-2-yl}-1,3-benzoxazol-5-yl)MeOH]: the EC50 in assay [1] (Homo sapiens) was 10000 to 50000 nM. Moreover, the IC50 in assay [2] and in assay [3] was 1000 to 10000 nM in each case.

Take `Cn1cnnc1-c1cc(F)ccc1-c1cc(-c2nc3cc(CNCC4(O)CCC4)cc(C(F)(F)F)c3o2)nc(C2CC2)c1` [ADR-1, 1-((((2-(6-Cyclopropyl-4-(4-fluoro-2-(4-methyl-4H-1,2,4-triazol-3-yl)phenyl)pyridin-2-yl)-7-(trifluoromethyl)benzo[d]oxazol-5-yl)methyl)amino)methyl)cyclobutan-1-ol]: the concentration for a half-maximal effect (EC50) in assay [1] (Homo sapiens) is < 200 nM. Also, the IC50 in assay [2] and in assay [3] was < 200 nM throughout.

Consider `COCCNCc1cc(C(F)(F)F)c2oc(-c3cc(-c4ccc(F)cc4-c4nncn4C)cc(C4CC4)n3)nc2c1` [ADS-1, N-((2-(6-Cyclopropyl-4-(4-fluoro-2-(4-methyl-4H-1,2,4-triazol-3-yl)phenyl)pyridin-2-yl)-7-(trifluoromethyl)benzo[d]oxazol-5-yl)methyl)-2-methoxyethan-1-amine], for which the EC50 in assay [1] (Homo sapiens) was < 200 nM. The concentration for half-maximal inhibition (IC50) in assay [2] and in assay [3] was < 200 nM in each case.

As for `Cn1cnnc1-c1cc(Cl)ccc1-c1cc(-c2nc3cc(CNCC4(O)CCC4)ccc3o2)nc(C2CC2)c1` [ADT-12, 1-({[(2-{4-[4-Chloro-2-(4-methyl-1,2,4-triazol-3-yl)phenyl]-6-cyclopropylpyridin-2-yl}-1,3-benzoxazol-5-yl)methyl]amino}methyl)cyclobutan-1-ol], the 50% effective concentration (EC50) in assay [1] (Homo sapiens) is < 200 nM. Moreover, the IC50 in assay [2] and in assay [3] was < 200 nM in each case.
